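How tested: cells in 96-well plates exposed to compound for 48 hours at five concentrations. TGI marks complete inhibition of growth.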
What was measured:
Assay in all cases: NCI-60 cell line screen, 48 h
ACHN renal = tested on: ACHN renal
COLO 205 colon = tested on: COLO 205 colon
HCT-15 colon = tested on: HCT-15 colon
HS 578T breast = tested on: HS 578T breast
MDA-N = tested on: MDA-N
RXF 393 renal = tested on: RXF 393 renal
SF-268 CNS = tested on: SF-268 CNS
SF-539 CNS = tested on: SF-539 CNS
SK-MEL-28 melanoma = tested on: SK-MEL-28 melanoma
UACC-257 melanoma = tested on: UACC-257 melanoma

Compound | TGI (ACHN renal) [µM] | TGI (COLO 205 colon) [µM] | TGI (HCT-15 colon) [µM] | TGI (HS 578T breast) [µM] | TGI (MDA-N) [µM] | TGI (RXF 393 renal) [µM] | TGI (SF-268 CNS) [µM] | TGI (SF-539 CNS) [µM] | TGI (SK-MEL-28 melanoma) [µM] | TGI (UACC-257 melanoma) [µM]
N#Cc1nc(CCC(c2nc(C#N)c(N)o2)N2C(=O)c3ccccc3C2=O)oc1N (stereo not given) | > 100 | > 100 | > 100 | > 100 | > 100 | > 100 | > 100 | > 100 | > 100 | > 100
c1ccc(-c2cc(-c3cccs3)c(-c3cccs3)o2)cc1 | > 100 | > 100 | > 100 | > 100 | > 100 | > 100 | > 100 | > 100 | > 100 | > 100
Clc1c(C(Cl)(Cl)Cl)nsc1N1CCCCC1 | > 100 | 30.5 | 79.9 | > 100 | > 100 | 32.3 | > 100 | 68.5 | > 100 | 64.7
C=C(C)[C@@H]1CCC2=C[C@H](CC(C)=CC3=CC(C)=C(O3)[C@@H]1OC)OC2=O | > 100 | > 100 | > 100 | > 100 | > 100 | 56.9 | > 100 | > 100 | > 100 | > 100
COc1ccc(-c2cc(-c3cc(F)c(Cl)cc3Cl)on2)cc1OC | > 100 | 92.3 | > 100 | > 100 | 41 | 46.6 | > 100 | 27 | > 100 | > 100
CCOC(=O)C(C(=O)OCC)=C1NC2(c3ccccc3Nc3ccc(C)cc32)C(C(=O)OC)S1 (stereo not given) | > 100 | 57.9 | > 100 | 69.2 | > 100 | 70.6 | > 100 | > 100 | > 100 | > 100
C=CCN(c1cc(OC)c2[nH]cc(C)c2c1[N+](=O)[O-])S(C)(=O)=O | > 100 | > 100 | > 100 | > 100 | > 100 | > 100 | > 100 | > 100 | > 100 | > 100
CCSc1nc(N)c2c(-c3ccccc3)c3c(nc2n1)CCC3 | > 100 | > 100 | > 100 | > 100 | > 100 | > 100 | > 100 | 53 | > 100 | > 100
COc1cc2c(cc1OCCCC(=O)Nc1cc(C(=O)NCCCN(C)C)n(C)n1)N=CC1CCCN1C2=O (stereo not given) | 12.6 | > 23 | > 21.5 | > 100 | 73.2 | > 75.6 | > 50.4 | 22.1 | 11.1 | 19.2
Cc1cc2nc(N3C(=O)/C(=C/c4ccc(Cl)cc4)N=C3c3ccccc3)sc2cc1C | > 100 | 43.3 | > 100 | 74.2 | 30.3 | 57.9 | > 100 | > 100 | > 100 | > 100
Clc1nc(Cl)c(CBr)c(Cl)n1 | 15.7 | 20.9 | 7.91 | > 56.8 | 13.2 | 21.4 | 23.1 | 7.76 | 19.9 | 33.9
S=C(Nc1ccccn1)Nc1ccccc1Cl | > 100 | > 100 | > 100 | > 52.2 | > 100 | > 100 | > 78 | > 100 | > 100 | > 100
CC(=O)Oc1ccc(/C=C/C(=O)O[C@H]2CCCC[C@@H]2OC(=O)/C=C/c2ccc(OC(C)=O)c(OC(C)=O)c2)cc1OC(C)=O | 33.4 | 46.6 | 31.2 | > 100 | 27.5 | 27.7 | 32.6 | > 100 | 33.1 | 52.6
COc1ccc2cc(C(=O)NCCCNC(=O)c3ccc4cc(OC)ccc4c3)ccc2c1 | > 100 | > 100 | > 100 | > 100 | > 100 | 39.6 | > 100 | 7.99 | > 100 | > 100
c1ccc(C(CCN2CC3CCC(CC3)C2)c2ccccc2)cc1 | 57.8 | 25.1 | 45.4 | 50.5 | 58.9 | 37.9 | 69.2 | 29.5 | > 100 | 31.9
CCOC(=O)Cn1c(=O)c2cc(-c3ccccc3)cc3c(Cl)nc4c(OC)c(OC)cc1c4c32 | > 65.5 | > 100 | 32.2 | > 27.7 | 43.2 | 30.7 | 29.2 | > 100 | 55.4 | 38.9
Oc1ccc(O)c(CNc2ccccc2)c1 | 25.5 | 37.4 | 42.2 | > 100 | 16.6 | 19.5 | > 100 | 15.2 | > 100 | 39.4

Compound | TGI (ACHN renal) [µM] | TGI (COLO 205 colon) [µM] | TGI (HCT-15 colon) [µM] | TGI (HS 578T breast) [µM] | TGI (MDA-N) [µM] | TGI (RXF 393 renal) [µM] | TGI (SF-268 CNS) [µM] | TGI (SF-539 CNS) [µM] | TGI (SK-MEL-28 melanoma) [µM] | TGI (UACC-257 melanoma) [µM]
C[C@]1(O)O[C@@H]2OCC[C@@H]2C2=C1C(=O)c1ccccc1C2=O | 31.7 | 53.9 | 39.1 | 82.4 | 19.1 | 27.2 | 26.3 | 31.7 | 82.5 | 31
O=c1cc(N=Nc2ccc(Cl)cc2)[nH]c(=O)[nH]1 | 5.76 | 5.81 | 4.43 | 12.7 | 11 | 10.2 | 12.3 | 10.2 | 13.5 | 10.6
O=[N+]([O-])c1c2nc3n(c2cc2c1nc1n2CCC1)CCC3 | > 100 | > 100 | > 100 | > 100 | > 100 | > 100 | > 100 | > 100 | > 100 | > 100
CC12CCC(C(Nc3ccccn3)C1=O)C2(C)C (stereo not given) | > 100 | > 100 | > 100 | > 100 | > 100 | > 100 | > 100 | > 100 | > 100 | > 100
COC(=O)c1cc(C(=CCC[C@H]2CC[C@@]3(C)C(CCC4C3CC[C@@]3(C)C4CC[C@@H]3C(C)CCCC(C)C)C2)c2cc(Cl)c(OC(=O)c3ccccc3)c(C(=O)OC)c2)cc(Cl)c1OC(=O)c1ccccc1 (stereo not given in full) | > 10 | > 10 | > 10 | > 10 | > 10 | > 10 | > 10 | > 10 | > 10 | > 10
COc1ccccc1NC(=O)O/N=C(/Cl)C(C)C | 17.4 | 5.09 | 27 | 67.9 | 26.8 | 28.4 | 32.5 | 35.9 | 27.8 | 26.8
COc1ccc(Oc2nc(C#CC(C)(C)O)nc(Oc3ccc(OC)cc3)n2)cc1 | 3.13 | 16.9 | 2.95 | 82.7 | 21.6 | 2.85 | 28.5 | 22.5 | 18.9 | 38.2
CC1(C)CCC(=O)NC1CC(=O)CC1NC(=O)CCC1(C)C (stereo not given) | > 100 | > 100 | > 100 | > 100 | > 100 | > 100 | > 100 | > 100 | > 100 | > 100
CCCCCCCCCCCCCCCCCCOCC(COP(=O)([O-])OCC[N+](C)(C)C)OC (stereo not given) | > 100 | 21.2 | 11.3 | > 100 | > 100 | 42.2 | 51.8 | > 70.2 | 57.9 | 30.5
Cc1nc2ccccc2n1Cc1nnc(N)o1 | > 100 | > 100 | > 100 | > 100 | > 100 | > 100 | > 100 | > 100 | > 100 | > 100
N#Cc1ccc(Oc2nc3ccc(C(F)(F)F)cc3nc2-c2ccccc2)cc1 | 28.4 | 50.9 | 28.1 | 44.5 | 57.8 | 77.8 | 76.4 | 89.3 | 30.2 | 54.7
Cc1ccc(S(=O)(=O)N2CCNCCN(S(=O)(=O)c3ccc(C)cc3)CCN(S(=O)(=O)c3ccc(C)cc3)CC2)cc1 | > 100 | > 100 | > 100 | > 100 | > 100 | > 100 | > 100 | > 100 | > 100 | > 100
NC(=O)CC(N=C1C(=O)OC(C(O)CO)C1=NC(CC(N)=O)C(=O)O)C(=O)O (stereo not given) | > 100 | > 100 | > 100 | > 100 | > 100 | > 100 | > 100 | > 100 | > 100 | > 100
Nc1ccc(Oc2ccc(C34CC5CC6C3CC3CC4C(C5)C6(c4ccc(Oc5ccc(N)c(O)c5)cc4)C3)cc2)cc1O | 14.3 | 2.85 | 25 | 80.5 | 14.8 | 27 | 29.2 | 0.652 | 23.6 | 34.7
Cn1c(=O)c2c(nc(Nc3ccc(Cl)cc3)n3c(=O)n(-c4ccccc4)c(=O)n23)n(C)c1=O | > 100 | > 100 | > 100 | > 100 | > 100 | > 100 | > 100 | > 100 | > 100 | > 100
N=c1c2c(=S)n(-c3ccccc3)c(=S)n(-c3ccccc3)c2nc(SCCN2CCOCC2)n1-c1ccccc1 | 3.5 | 3.66 | 4.09 | > 100 | 4.99 | 3.55 | 4.41 | 8.83 | 4.39 | 4.28

Source: PubChem BioAssay (NCI)
